This note sets out measurements from ChEMBL document CHEMBL5032491, “New Dibenzoquinoxalines Inhibit Triple-Negative Breast Cancer Growth by Dual Targeting of Topoisomerase 1 and the c-MYC G-Quadruplex” (J Med Chem, 2021).

In data set [1] the target is T1, DNA topoisomerase 1 (Homo sapiens) (UniProt P11387).
T1 sequence (whole entry): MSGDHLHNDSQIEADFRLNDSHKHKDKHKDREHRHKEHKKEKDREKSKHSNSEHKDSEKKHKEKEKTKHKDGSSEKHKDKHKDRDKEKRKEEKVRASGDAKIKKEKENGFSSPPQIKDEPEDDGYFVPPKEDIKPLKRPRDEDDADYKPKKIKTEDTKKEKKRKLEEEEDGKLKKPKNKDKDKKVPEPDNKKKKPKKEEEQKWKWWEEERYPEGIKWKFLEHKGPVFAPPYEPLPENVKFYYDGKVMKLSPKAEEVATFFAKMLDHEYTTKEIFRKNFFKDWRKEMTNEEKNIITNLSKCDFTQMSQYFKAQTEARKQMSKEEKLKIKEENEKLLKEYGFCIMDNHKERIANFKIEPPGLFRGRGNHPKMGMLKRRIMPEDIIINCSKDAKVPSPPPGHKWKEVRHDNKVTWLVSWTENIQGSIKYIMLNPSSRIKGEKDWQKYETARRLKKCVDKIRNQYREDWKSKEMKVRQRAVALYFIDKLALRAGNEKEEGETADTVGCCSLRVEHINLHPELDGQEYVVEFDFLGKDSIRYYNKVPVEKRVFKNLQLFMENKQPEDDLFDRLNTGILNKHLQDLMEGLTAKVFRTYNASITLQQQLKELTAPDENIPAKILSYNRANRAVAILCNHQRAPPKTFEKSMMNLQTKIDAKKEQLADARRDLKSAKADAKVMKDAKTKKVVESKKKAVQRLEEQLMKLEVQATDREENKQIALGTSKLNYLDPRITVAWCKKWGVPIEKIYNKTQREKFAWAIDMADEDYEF
Kind of data set: Poison activity at human topoisomerase 1 assessed as formation of cleavage complex using pHOT-1 DNA as substrate incubated for 30 mins by agarose gel electrophoresis.

For the next data set, the system named is Quadruplex DNA. Kind of data set: Stabilization of c-Myc G-quadruplex DNA (unknown origin ) assessed as increase in melting temperature at 6 uM by CD spectroscopy. Format: nucleic-acid assay.
The subject of data set [2] is MDA-MB-231. Kind of data set: Inhibition of HRAS gene transcription expression in human MDA-MB-231 cells at 0.5 to 2 uM incubated for 24 hrs by RT-PCR analysis. Format: functional, cell-based. The note with it: dose 0.5-2 µM.
The subject of a further data set is CA46. Kind of data set: Downregulation of EXON 2 transcription in human CA46 cells incubated for 24 hrs by RT-PCR analysis. Format: functional, cell-based.
For data set [3], the system named is MDA-MB-231. Description: Induction of cell cycle arrest in human MDA-MB-231 cells assessed as accumulation at sub-G1 phase at 0.5 uM incubated for 24 hrs by flow cytometry (reference value: 2.8%). Format: functional.
The subject of data set [4] is MDA-MB-231. Description: Induction of cell cycle arrest in human MDA-MB-231 cells assessed as accumulation at G0/G1 phase at 2 uM incubated for 24 hrs by flow cytometry (reference value: 56.6%). Format: functional. For orientation: In flow cytometry, cells or beads pass a laser one at a time.
For data set [5], the system named is MDA-MB-231. Kind of data set: Induction of cell cycle arrest in human MDA-MB-231 cells assessed as accumulation at G2/M phase at 0.5 uM incubated for 24 hrs by flow cytometry (reference value: 20.4%). Format: functional.
Data set [6] has as its system MDA-MB-231. Kind of data set: Anticlonogenic activity against human MDA-MB-231 cells assessed as inhibition of colony formation incubated for 7 days by crystal violet staining based assay. Type of data set: functional, cell-based. Conditions: time 7.0 day.
The subject of data set [7] is MDA-MB-231. Kind of data set: Antitumor activity against human MDA-MB-231 cells xenografted in BALB/c mouse assessed as tumor growth inhibition measured at 5 mg/kg, IP administered every other day for 20 days. Format: functional. Conditions: MDA-MB-231, ip, 480 h, time 20 day, read-out: TGI. In general terms: In xenograft studies the graft and the host belong to different species.

Data set [8] is described as follows: Toxicity in human MDA-MB-231 cells xenografted BALB/c mouse assessed as body weight loss at 2.5 to 5 mg/kg, ip administered every other day for 20 days. The note with it: in vivo, 480 h, dose 2.5-5 mg/kg, time 20 day. Format: organism-based.
Data set [9] deals with MDA-MB-231. Kind of data set: Antitumor activity against human MDA-MB-231 cells xenografted in ip dosed BALB/c mouse assessed as tumor growth inhibition administered every other day for 20 days. Type of data set: functional, organism-based. Conditions: dose 2.5-5 […], time 20.0 day.

The structures appear in SMILES notation. Activity calls are given as the source filed them. The calls are words filed in the database; no cut-off is given here.

`COc1ccc2nc3c4ccc(N5CCN(C)CC5)cc4c4cc(N5CCN(C)CC5)ccc4c3nc2c1`: the outcome (in data set [1]; in the data set with CA46) was inactive. Moreover, the Tm in the data set with Quadruplex DNA came to 30 °C. In addition, in the data set with MDA-MB-231 [2], the inhibition result was “inactive”. Besides, the Activity in the data set on MDA-MB-231 [3] is 3.1%; in the data set with MDA-MB-231 [4] it was 38.9%; with MDA-MB-231 [5], 21.7%; in the data set on MDA-MB-231 [6], “Dose-Dependent Effect”; in [8], “Non-Toxic”; with MDA-MB-231 [9] it was “Dose-Dependent Effect”. Further, the inhibition in vivo at 5 mg/kg in the data set on MDA-MB-231 [7] was 66%.
